The results in this text go back to patent US10233184B2, “7-substituted sulfonimidoylpurinone compounds and derivatives for the treatment and prophylaxis of virus infection” (Hoffmann-La Roche Inc., priority 2016, dated 2019).

Data set [1] can be described thus: Single dose PK study in male Wister-Han rats. The format is in vivo. Particulars: 5 mg/kg oral dosing of active form. As for the experimental part:
The single dose PK in Male Wister-Han Rats was performed to assess pharmacokinetic properties of tested compounds. Two groups of animals were dosed via Gavage (POE) of the respective compound. […] Blood samples were placed into tubes containing EDTA-K2 anticoagulant and centrifuged at 5000 rpm for 6 min at 4° C. to separate plasma from the samples. After centrifugation, the resulting plasma was transferred to clean tubes for bioanalysis of both prodrug and active form on LC/MS/MS. In the groups that prodrug were dosed, the concentration of prodrugs in the plasma samples was under the detection limit. The “tested compound” in Table 8 was used as the internal standard for testing the metabolite (active form) of “dose compound” in vivo. The pharmacokinetic parameters were calculated using non-compartmental module of WinNonlin® Professional 6.2. The peak concentration (Cmax) was recorded directly from experimental observations. The area under the plasma concentration-time curve (AUC0-t) was calculated using the linear trapezoidal rule up to the last detectable concentration. Cmax and AUC0-last are two critical PK parameters related to the in vivo efficacy of the tested compound. Compounds with higher Cmax and AUC0-last will lead to the better in vivo efficacy.

For the next data set, the target named is T1, human TLR7 (Homo sapiens, UniProt Q9NYK1).
T1 sequence (Q9NYK1 27-1049): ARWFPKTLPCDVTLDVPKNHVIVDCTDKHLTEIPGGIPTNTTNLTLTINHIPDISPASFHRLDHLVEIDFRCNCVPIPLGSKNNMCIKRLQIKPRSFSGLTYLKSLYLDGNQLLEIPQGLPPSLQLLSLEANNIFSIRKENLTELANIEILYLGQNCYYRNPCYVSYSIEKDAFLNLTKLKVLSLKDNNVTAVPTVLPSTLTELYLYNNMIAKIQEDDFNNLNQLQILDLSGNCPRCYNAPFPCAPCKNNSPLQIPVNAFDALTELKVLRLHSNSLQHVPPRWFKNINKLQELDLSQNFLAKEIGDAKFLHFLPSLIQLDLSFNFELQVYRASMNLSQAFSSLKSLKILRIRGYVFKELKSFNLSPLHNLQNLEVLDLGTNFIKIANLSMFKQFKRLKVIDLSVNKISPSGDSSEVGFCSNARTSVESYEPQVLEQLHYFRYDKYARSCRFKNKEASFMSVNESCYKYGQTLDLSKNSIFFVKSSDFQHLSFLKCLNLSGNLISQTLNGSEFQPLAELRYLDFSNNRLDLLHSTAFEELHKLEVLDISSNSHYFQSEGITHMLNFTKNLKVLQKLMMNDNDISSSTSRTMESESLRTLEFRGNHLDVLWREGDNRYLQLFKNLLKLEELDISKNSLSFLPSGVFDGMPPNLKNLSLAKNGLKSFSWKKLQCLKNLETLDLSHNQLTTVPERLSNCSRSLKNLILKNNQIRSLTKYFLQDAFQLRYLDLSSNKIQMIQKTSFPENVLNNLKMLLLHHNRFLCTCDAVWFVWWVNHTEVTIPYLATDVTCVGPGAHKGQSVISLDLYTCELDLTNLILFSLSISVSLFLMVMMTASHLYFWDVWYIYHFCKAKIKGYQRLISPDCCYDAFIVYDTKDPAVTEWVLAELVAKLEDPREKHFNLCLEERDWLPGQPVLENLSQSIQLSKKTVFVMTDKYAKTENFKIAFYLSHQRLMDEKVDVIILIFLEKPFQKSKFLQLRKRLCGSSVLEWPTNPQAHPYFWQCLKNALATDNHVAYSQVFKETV
Put plainly: HEK293-Blue-hTLR-7 cells assay (SEAP reporter). It is filed as cell-based. The settings on record: for EC50: HEK293-Blue-hTLR-7 cells, SEAP reporter, 20 hrs; for Ratio (EC50(prodrug)/EC50(active form)): EC50 of prodrug over EC50 of corresponding active form. Summed up:
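HEK293-Blue-hTLR7 cells with NF-κB/AP-1-driven SEAP reporter exposed to serially diluted compound (1% DMSO) for 20 hrs at 37° C. Supernatant SEAP measured with QUANTI-Blue after 2 hrs at 37° C, absorbance 620~655 nm; agonism expressed as EC50.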

A short description of a further data set: LYSA solubility study. The format is physicochemical. Particulars: for solubility thermodynamic: phosphate buffer, pH 6.5, aqueous buffer, thermodynamic from solid; for LYSA of Active Forms / LYSA of Prodrugs: aqueous solubility, 0.05M phosphate buffer pH 6.5. As for the experimental part: LYSA study is used to determine the aqueous solubility of tested compounds. Samples were prepared in duplicate from 10 mM DMSO stock solution. After evaporation of DMSO with a centrifugal vacuum evaporator, the compounds were dissolved in 0.05M phosphate buffer (pH 6.5), stirred for one hour and shaken for two hours. After one night, the solutions were filtered using a microtiter filter plate. Then the filtrate and its 1/10 dilution were analyzed by HPLC-UV. […] The results were in μg/mL. In case the percentage of sample measured in solution after evaporation divided by the calculated maximum of sample amount was bigger than 80%, the solubility was reported as bigger than this value.

Setting [2] is: male, Wister-Han, rat, plasma, po, 5 mg/kg.
The mark [3] stands for this setting: active form, read-out: HEK293-hTLR-7 EC50 (Active form).
Setting [4] is: 0.05M phosphate buffer pH 6.5, read-out: LYSA of Active Forms.
The mark [5] stands for this setting: prodrug, read-out: HEK293-hTLR-7 EC50 (Prodrug).
Where [6] appears, read: 0.05M phosphate buffer pH 6.5, read-out: LYSA of Prodrugs.

As usually defined, the AUC(0-t) is exposure summed from dosing to a finite time, without extrapolation to infinity. High values mean high exposure, low ones low exposure. One may read the Cmax as the maximum level reached in the sampled fluid or tissue. By EC50 is commonly meant the midpoint of the concentration-response curve.

≈ marks a conversion by molar mass, not a printed value. Where “and” joins values, the source holds several entries; their conditions need not be identical. Identical values can stand only once. Like-named read-outs stand apart in the source and are kept apart here.

As for `CC[S@](=N)(=O)c1nc(N)c2[nH]c(=O)n(Cc3ccc(Cl)cc3)c2n1` (single isomer, unassigned) [Compound 41c-A], in data set [1] (setting [2]), the AUC(0-t) is 0.242 µM·h, the highest level (Cmax) was 32.3 nM, the concentration at 0.25 h came to 16.8 nM and the concentration at 0.5 h worked out at 27.5 nM. Moreover, in data set [1] (setting [2]), the concentration at 1 h amounted to 32.3 nM, the concentration at 2 h came to 27.3 nM, the concentration at 4 h turned out to be 27.4 nM and the concentration at 24 h was determined as 5.6 nM. Moreover, the concentration at 7 h in data set [1] (male, Wister-Han, rat, plasma, po, 5 mg/kg, 7 hrs (footnote), read-out: Mean plasma concentration (nM), 7 hrs (row 8*)) is 18 nM. Besides, the EC50 on human TLR7 (setting [3]) is 0.071 µM. Also, the solubility thermodynamic in the data set “LYSA solubility study” (setting [4]) came to 1 µg/mL (≈ 2.73 µM).

In data set [1] (setting [2]), `CCS(=N)(=O)c1nc(N)c2[nH]c(=O)n(Cc3ccc(F)cc3)c2n1` (single isomer, unassigned) [Compound 45e-A] registered an AUC(0-t) of 0.767 µM·h, a Cmax of 80 nM, a concentration at 0.25 h of 64.6 nM and a concentration at 0.5 h of 80 nM. In addition, in data set [1] (setting [2]), the concentration at 1 h came out at 58.1 nM, the concentration at 2 h was found to be 42.5 nM, the concentration at 4 h amounted to 77.8 nM and the concentration at 8 h worked out at 34.6 nM. The compound further showed a concentration at 24 h in data set [1] (setting [2]) of 8.6 nM. Further, the EC50 on human TLR7 (setting [3]) is 0.39 µM and 0.26 µM. Also, the “LYSA of Active Forms” value in the data set “LYSA solubility study” was found to be 90 µg/mL.

As to `CCS(=N)(=O)c1nc(N)c2[nH]c(=O)n(Cc3ccc(F)cc3)c2n1` (single isomer, unassigned) [Compound 45e-B], in data set [1], the “AUC0-last” value stood at 0.568 µM·h and the highest concentration (Cmax) was 53.9 nM. Also, in data set [1] (read-out: Mean plasma concentration (nM), 0.25 h), the concentration at 0.25 h was found to be 42.8 nM. Also, in data set [1] (read-out: Mean plasma concentration (nM), 0.5 h), the concentration at 0.5 h was determined as 52.2 nM. Besides, the concentration at 1 h in data set [1] (read-out: Mean plasma concentration (nM), 1 h) came to 37.6 nM. The concentration at 2 h in data set [1] (read-out: Mean plasma concentration (nM), 2 h) is recorded as 24.2 nM. Besides, in data set [1] (read-out: Mean plasma concentration (nM), 4 h), the concentration at 4 h amounted to 53.9 nM. Besides, the concentration at 8 h in data set [1] (read-out: Mean plasma concentration (nM), 8 h) is reported as 29 nM. Also, the concentration at 24 h in data set [1] (read-out: Mean plasma concentration (nM), 24 h) turned out to be 5.7 nM. For the same compound, the EC50 at human TLR7 (setting [3]) was 0.26 µM and 0.39 µM. In “LYSA solubility study”, the “LYSA of Active Forms” value was 115 µg/mL.

Regarding `CCCN(C)C(=O)n1c(=O)n(Cc2ccccc2)c2nc(S(=N)(=O)CCC)nc(N)c21` (single isomer, unassigned) [Example 1-A], the “Ratio (EC50(prodrug)/EC50(active form))” value at human TLR7 was found to be 634.3. In addition, the EC50 at human TLR7 (setting [5]) was 42.5 µM. Also, the solubility thermodynamic in “LYSA solubility study” (setting [6]) came out at 315 µg/mL (≈ 707 µM).

With `CCCS(=N)(=O)c1nc(N)c2c(n1)n(Cc1ccccc1)c(=O)n2C(=O)N(C)CCN(C)C(=O)OC(C)(C)C` (stereo not drawn) [Example 27, tert-Butyl N-[2-[[6-amino-9-benzyl-8-oxo-2-(propylsulfonimidoyl)purine-7-carbonyl]-methyl-amino]ethyl]-N-methyl-carbamate], on human TLR7 (setting [5]), the half-maximal effective concentration (EC50) was 31.7 µM. For the same compound, in “LYSA solubility study” (setting [6]), the solubility thermodynamic is greater than 380 µg/mL.

As to `CCCS(=N)(=O)c1nc(N)c2c(n1)n(Cc1ccccc1)c(=O)n2C(=O)N(C)CCOC` (single isomer, unassigned) [Example 2-B], the “Ratio (EC50(prodrug)/EC50(active form))” value at human TLR7 was 65.7. For the same compound, the EC50 on human TLR7 (setting [5]) turned out to be 4.4 µM. Also, the “LYSA of Prodrugs” value in “LYSA solubility study” is greater than 590 µg/mL.

On to `CCCS(=N)(=O)c1nc(N)c2c(n1)n(Cc1ccccc1)c(=O)n2C(=O)N1CCC(N2CCCCC2)CC1` (stereo not drawn) [Example 4, 6-Amino-9-benzyl-7-[4-(1-piperidyl)piperidine-1-carbonyl]-2-(propylsulfonimidoyl)purin-8-one], for which the “Ratio (EC50(prodrug)/EC50(active form))” value at human TLR7 is listed as 353.8. Also, the concentration for a half-maximal effect (EC50) at human TLR7 (setting [5]) worked out at 23 µM. Besides, in the data set “LYSA solubility study” (setting [6]), the solubility thermodynamic turned out to be 695 µg/mL (≈ 1290 µM).

Regarding `CCCS(=N)(=O)c1nc(N)c2c(n1)n(Cc1ccccc1)c(=O)n2C(=O)N(C)CCCOC` (stereo not drawn) [Example 12, 6-Amino-9-benzyl-N-(3-methoxypropyl)-N-methyl-8-oxo-2-(propylsulfonimidoyl)purine-7-carboxamide], at human TLR7, the “Ratio (EC50(prodrug)/EC50(active form))” value was determined as 675.4. Further, on human TLR7 (setting [5]), the EC50 is 43.9 µM. Also, the solubility thermodynamic in “LYSA solubility study” (setting [6]) came out at 120 µg/mL (≈ 252 µM).

As for `CCCS(=N)(=O)c1nc(N)c2c(n1)n(Cc1ccccc1)c(=O)n2C(=O)N(C)CC(C)C` (stereo not drawn) [Example 13, 6-Amino-9-benzyl-N-isobutyl-N-methyl-8-oxo-2-(propylsulfonimidoyl)purine-7-carboxamide], at human TLR7, the “Ratio (EC50(prodrug)/EC50(active form))” value is on record as 1030.8. In addition, the concentration for a half-maximal effect (EC50) on human TLR7 (setting [5]) was found to be 67 µM. The solubility thermodynamic in the data set “LYSA solubility study” (setting [6]) amounted to 155 µg/mL (≈ 337 µM).

Consider `CCCS(=N)(=O)c1nc(N)c2c(n1)n(Cc1ccccc1)c(=O)n2C(=O)N(C)C(C)C` (stereo not drawn) [Example 10, 6-Amino-9-benzyl-N-isopropyl-N-methyl-8-oxo-2-(propylsulfonimidoyl)purine-7-carboxamide], for which the “Ratio (EC50(prodrug)/EC50(active form))” value at human TLR7 came out at 1053.8. Moreover, the EC50 on human TLR7 (setting [5]) is 68.5 µM. Besides, the solubility thermodynamic in the data set “LYSA solubility study” (setting [6]) is 120 µg/mL (≈ 269 µM).

As for `CCN(C)C(=O)n1c(=O)n(Cc2ccc(Br)cc2)c2nc(S(=N)(=O)CC)nc(N)c21` (single isomer, unassigned) [Example 48-B], the EC50 at human TLR7 (setting [5]) came out at 20.8 µM. In addition, the “LYSA of Prodrugs” value in “LYSA solubility study” is 275 µg/mL.

With `CC[S@](=N)(=O)c1nc(N)c2[nH]c(=O)n(Cc3ccc(C)cc3)c2n1` (single isomer, unassigned) [Compound 43e-B], the EC50 on human TLR7 (setting [3]) stood at 0.035 µM. For the same compound, the solubility thermodynamic in the data set “LYSA solubility study” (setting [4]) was determined as 13 µg/mL (≈ 37.5 µM).

In the case of `CCCS(=N)(=O)c1nc(N)c2c(n1)n(Cc1ccccc1)c(=O)n2C(=O)N(C)CCOC(=O)N(CC)CC` (stereo not drawn) [Example 32, 2-[[6-Amino-9-benzyl-8-oxo-2-(propylsulfonimidoyl)purine-7-carbonyl]-methyl-amino]ethyl N,N-diethylcarbamate], on human TLR7, the “Ratio (EC50(prodrug)/EC50(active form))” value is listed as 346.2. Further, the EC50 on human TLR7 (setting [5]) is 22.5 µM. Moreover, in “LYSA solubility study” (setting [6]), the solubility thermodynamic was 125 µg/mL (≈ 229 µM).
